# Values of other authors, collected in PMC9782211 (Microorganisms, 2022).
# Test system: hERG channels
# Conditions: cited from earlier work
# Text: Inhibition of the potassium current flowing through the cardiac hERG ion channel (Kv11.1) has been correlated to life threatening torsades de pointes cardiac arrhythmia. Effects on hERG channel currents have been observed for a number of drugs, including antihistamines, antipsychotics, and many other drugs from nearly all therapeutic areas and chemical classes, and have become a serious safety concern in drug discovery and development. Inhibition of hERG channel currents have also been reported for antibiotics, in particular for macrolides, raising concerns about the cardiac safety of a ...
substance,measurement,value
BeKm-1,block of hERG channels,high affinity
